Like-named read-outs stand apart in the source and are kept apart here.
Key:
[1] = system: breast cancer resistance protein; design: method as in unpublished data; settings: ref unpublished data, read-out: half maximal inhibitory concentration; cited from earlier work
[2] = system: organic anion and cation transporters; design: method as in unpublished data; settings: ref unpublished data, read-out: half maximal inhibitory concentration; cited from earlier work
CYP2C9 = system: CYP2C9; design: method as in unpublished data; settings: ref unpublished data; cited from earlier work
CYP3A4 = system: CYP3A4; design: method as in unpublished data; settings: ref unpublished data; cited from earlier work
[3] = Phase 1 part A: PK after single and multiple once-daily oral doses; assay type: in vivo, human; settings: for Dose-normalized AUClast / Dose-normalized AUCτ / Dose-normalized AUC∞ / Dose-normalized Cmax: geometric least squares mean; for concentration at 30 day / Tmax / half-life / AUC / AUC(0-inf) / AUC(0-t) / Cmax: human, plasma
Description: The study was conducted sequentially in 2 parts. […] Eligible participants were admitted to the clinical unit for single‐dose evaluation from days −2 to 2 and from days 29 to 31 for steady‐state PK and safety evaluation. Participants self‐administered daily doses after an overnight fast of at least 10 hours on days 4 to 30, with outpatient visits on days 3, 4, 7, 14, 21, 32, 33, and 61 (Figure S1).
For part A, blood samples for PK assessments were collected following administration on days 1 and 30 at 0 (predose), 0.5, 0.75, 1, 1.5, 2, 3, 4, 8, 12, 24, 48, and 72 hours after dosing. In addition, predose PK samples were collected on days 4, 7, 14, and 21. PK parameters following single and multiple once‐daily dosing were evaluated using noncompartmental analysis, including the AUC over a dosing interval (AUCτ), AUC from time 0 to the last time with quantifiable concentration (AUClast), AUC from time 0 to infinite time (AUC∞), maximum plasma concentration (Cmax), minimum plasma concentration, time to maximum plasma concentration (tmax), terminal elimination half‐life (t1/2), apparent total drug clearance following oral administration (CL/F), and predose concentration.
All statistical analyses were performed using SAS version 9.3 or higher (SAS Institute Inc., Cary, North Carolina). Analysis of PK data was performed using WinNonlin Professional Software version 8.0 or higher (Certara, LP, Princeton, New Jersey). […] Categorical data were summarized by race and treatment group in terms of number of participants with data at relevant time points, frequency counts, and percentages. PK concentrations below the limit of quantification (BLQ) at time 0 on days 1 and 30 were considered 0. Postdose BLQ data were considered missing for PK parameter calculation. For mean concentrations and graphic presentation, all BLQ data were imputed as 0.

[4] = Multiple dosing (Day 30), Japanese n = 23, 3 dose groups pooled
[5] = Multiple dosing (Day 30), White n = 24, 3 dose groups pooled
[6] = Single dose (Day 1), Japanese n = 25, 3 dose groups pooled
[7] = Single dose (Day 1), White n = 24, 3 dose groups pooled
[8] = po, 10 mg, Day 1, 10 mg, Japanese, mean (CV%)
[9] = po, 10 mg, Day 1, 10 mg, White, mean (CV%)

Q: What does the source list for Cn1c(=O)oc2ccc(-c3ccc(C[C@@H](C#N)NC(=O)[C@@H]4CNCCCO4)cc3)cc21 [Brensocatib]?
A: IC50 [1]: > 11 µM; IC50 [2]: > 11 µM; CYP inhibition (CYP2C9): no effect; CYP induction (significant inducer or not) (CYP3A4): not a significant; Mean steady‐state CL/F ([3]; 10 mg, Japanese): 10.1 L/h; Mean steady‐state CL/F ([3]; 10 mg, White): 8.5 L/h; Mean steady‐state CL/F ([3]; 25 mg, Japanese): 6.4 L/h; Mean steady‐state CL/F ([3]; 25 mg, White): 7.0 L/h; Mean steady‐state CL/F ([3]; 40 mg, White): 6.5 L/h; Ctrough ([3]; Day 30, 10 mg once daily, Japanese, mean (CV%)): 15.64 (48.2) ng/mL; Ctrough ([3]; Day 30, 10 mg once daily, White, mean (CV%)): 31.65 (52.6) ng/mL; Ctrough ([3]; Day 30, 25 mg once daily, Japanese, mean (CV%)): 93.05 (72.3) ng/mL; Ctrough ([3]; Day 30, 25 mg once daily, White, mean (CV%)): 83.24 (48.2) ng/mL; Ctrough ([3]; Day 30, 40 mg once daily, Japanese, mean (CV%)): 81.86 (101.6) ng/mL; Ctrough ([3]; Day 30, 40 mg once daily, White, mean (CV%)): 92.95 (90) ng/mL; Dose-normalized AUClast [3, 4]: 172.9 (ng ‧ h/mL)/mg; Dose-normalized AUCτ [3, 4]: 107.6 (ng ‧ h/mL)/mg; Dose-normalized AUC∞ [3, 4]: 194.9 (ng ‧ h/mL)/mg; Dose-normalized Cmax [3, 4]: 8.5 (ng/mL)/mg; Dose-normalized AUClast [3, 5]: 243.8 (ng ‧ h/mL)/mg; Dose-normalized AUCτ [3, 5]: 144.8 (ng ‧ h/mL)/mg; Dose-normalized AUC∞ [3, 5]: 285.4 (ng ‧ h/mL)/mg; Dose-normalized Cmax [3, 5]: 10.6 (ng/mL)/mg; Dose-normalized AUClast [3, 6]: 94.0 (ng ‧ h/mL)/mg; Dose-normalized AUCτ [3, 6]: 62.5 (ng ‧ h/mL)/mg; Dose-normalized AUC∞ [3, 6]: 103.9 (ng ‧ h/mL)/mg; Dose-normalized Cmax [3, 6]: 6.1 (ng/mL)/mg; Dose-normalized AUClast [3, 7]: 118.8 (ng ‧ h/mL)/mg; Dose-normalized AUCτ [3, 7]: 75.4 (ng ‧ h/mL)/mg; Dose-normalized AUC∞ [3, 7]: 133.9 (ng ‧ h/mL)/mg; Dose-normalized Cmax [3, 7]: 6.9 (ng/mL)/mg; concentration at 30 day ([3]; oral, 10 mg, Day 30, 10 mg once daily, Japanese, mean (CV%), read-out: Cavg): 43.8 ng/mL; concentration at 30 day ([3]; oral, 10 mg, Day 30, 10 mg once daily, Japanese, mean (CV%), read-out: Cmin): 19.6 ng/mL; concentration at 30 day ([3]; oral, 10 mg, Day 30, 10 mg once daily, White, mean (CV%), read-out: Cavg): 49.4 ng/mL; concentration at 30 day ([3]; oral, 10 mg, Day 30, 10 mg once daily, White, mean (CV%), read-out: Cmin): 26.3 ng/mL; concentration at 30 day ([3]; oral, 25 mg, Day 30, 25 mg once daily, Japanese, mean (CV%), read-out: Cavg): 174 ng/mL; concentration at 30 day ([3]; oral, 25 mg, Day 30, 25 mg once daily, Japanese, mean (CV%), read-out: Cmin): 98.8 ng/mL; concentration at 30 day ([3]; oral, 25 mg, Day 30, 25 mg once daily, White, mean (CV%), read-out: Cavg): 161 ng/mL; concentration at 30 day ([3]; oral, 25 mg, Day 30, 25 mg once daily, White, mean (CV%), read-out: Cmin): 93.9 ng/mL; concentration at 30 day ([3]; oral, 40 mg, Day 30, 40 mg once daily, Japanese, mean (CV%), read-out: Cavg): 167 ng/mL; concentration at 30 day ([3]; oral, 40 mg, Day 30, 40 mg once daily, Japanese, mean (CV%), read-out: Cmin): 77.5 ng/mL; concentration at 30 day ([3]; oral, 40 mg, Day 30, 40 mg once daily, White, mean (CV%), read-out: Cavg): 269 ng/mL; concentration at 30 day ([3]; oral, 40 mg, Day 30, 40 mg once daily, White, mean (CV%), read-out: Cmin): 149 ng/mL; Tmax ([3]; oral, once‐daily administration, steady state, range over groups, read-out: Tmax): 1 to 1.8 h; half-life ([3]; oral, once‐daily administration, steady state, range over groups, read-out: elimination t1/2): 21.7 to 27.6 h; half-life ([3]; oral, range over groups (abstract), read-out: Elimination half‐life): 22 to 28 h; half-life ([3]; oral, single dose, Japanese participants, range over dose groups, read-out: Elimination t1/2): 18.4 to 22.4 h; half-life ([3]; oral, single dose, White participants, range over dose groups, read-out: Elimination t1/2): 21.5 to 24.5 h; Tmax ([3]; oral, single‐dose administration, range over groups, read-out: median tmax): 1 to 1.5 h; half-life ([3]; oral, steady state, Japanese participants, across the 3 dose groups, read-out: mean t1/2): 21.7 to 23.1 h; half-life ([3]; oral, steady state, White participants, across the 3 dose groups, read-out: mean t1/2): 22.9 to 27.6 h; AUC [3, 8]: 628 ng·h/mL; AUC(0-inf) [3, 8]: 1030 ng·h/mL; AUC(0-t) [3, 8]: 943 ng·h/mL; Cmax [3, 8]: 64.5 ng/mL; half-life ([3]; po, 10 mg, Day 1, 10 mg, Japanese, mean (CV%), read-out: t1/2 (converted)): 18.8 h; Tmax ([3]; po, 10 mg, Day 1, 10 mg, Japanese, median (range), read-out: Tmax): 1.02 h; AUC [3, 9]: 620 ng·h/mL; AUC(0-inf) [3, 9]: 1140 ng·h/mL; AUC(0-t) [3, 9]: 988 ng·h/mL; Cmax [3, 9]: 55.9 ng/mL; half-life ([3]; po, 10 mg, Day 1, 10 mg, White, mean (CV%), read-out: t1/2 (converted)): 25.7 h; Tmax ([3]; po, 10 mg, Day 1, 10 mg, White, median (range), read-out: Tmax): 1.01 h
